Test results taken from ChEMBL document CHEMBL1255559, “Novel macrocyclic HCV NS3 protease inhibitors derived from α-amino cyclic boronates” (Bioorg Med Chem Lett, 2010).

Assays:
Hepatitis C virus [1] = experiment: Antiviral activity against HCV 1a infected in human hepatoma cells by replicon assay; type: functional, organism-based, Hepacivirus hominis; conditions: subtype 1a
Hepatitis C virus [2] = experiment: Antiviral activity against HCV 1b infected in human hepatoma cells by replicon assay; type: functional, organism-based, Hepacivirus hominis; conditions: genotype 1b
[3] = Inhibition of HCV 1a NS3/4A protease by FRET assay; design: species or system Hepatitis C virus subtype 1a

Structure (SMILES)	EC50 (Hepatitis C virus [1]) [nM]	EC50 (Hepatitis C virus [2]) [µM]	IC50 [3] [nM]
CC(C)(C)[C@H](NC(=O)OC1CCCC1)C(=O)N1C[C@H](OC(=O)N2Cc3cccc(F)c3C2)C[C@H]1C(=O)N[C@@H]1BOCC1	8700	> 10	–
CC1(C)CCCCc2cccc3c2CN(C3)C(=O)O[C@@H]2C[C@@H](C(=O)N[C@@H]3BOCC3)N(C2)C(=O)[C@H](C(C)(C)C)NC(=O)OC1	780	0.354	43
C[C@H]1COB[C@H]1NC(=O)[C@@H]1C[C@@H]2CN1C(=O)[C@H](C(C)(C)C)NC(=O)OCC(C)(C)CCCCc1cccc3c1CN(C3)C(=O)O2	1900	1.7	130
CC1(C)CCCCc2cccc3c2CN(C3)C(=O)O[C@@H]2C[C@@H](C(=O)N[C@@H]3BOC[C@@H]3C3CC3)N(C2)C(=O)[C@H](C(C)(C)C)NC(=O)OC1	980	4.2	110
CC1(C)CCCCc2cccc3c2CN(C3)C(=O)O[C@@H]2C[C@@H](C(=O)N[C@H]3CCCOB3O)N(C2)C(=O)[C@H](C(C)(C)C)NC(=O)OC1	1300	2.8	62
CC1(C)CCCCc2cccc3c2CN(C3)C(=O)O[C@@H]2C[C@@H](C(=O)N[C@H]3CCCCOB3O)N(C2)C(=O)[C@H](C(C)(C)C)NC(=O)OC1	380	0.2	47
CC1(C)CCCCc2cccc3c2CN(C3)C(=O)O[C@@H]2C[C@@H](C(=O)N[C@H]3BOCC3)N(C2)C(=O)[C@H](C(C)(C)C)NC(=O)OC1	11000	> 50	1400
C[C@@H]1COB[C@@H]1NC(=O)[C@@H]1C[C@@H]2CN1C(=O)[C@H](C(C)(C)C)NC(=O)OCC(C)(C)CCCCc1cccc3c1CN(C3)C(=O)O2	33000	30	25000
CC1(C)CCCCc2cccc3c2CN(C3)C(=O)O[C@@H]2C[C@@H](C(=O)N[C@@H]3CCCOB3O)N(C2)C(=O)[C@H](C(C)(C)C)NC(=O)OC1	12000	> 25	1300
CC1(C)CCCCc2cccc3c2CN(C3)C(=O)O[C@@H]2C[C@@H](C(=O)N[C@@H]3CCCCOB3O)N(C2)C(=O)[C@H](C(C)(C)C)NC(=O)OC1	3700	3.9	300
CC[C@@H]1C[C@]1(NC(=O)[C@@H]1C[C@@H]2CN1C(=O)[C@H](C(C)(C)C)NC(=O)OCC(C)(C)CCCCc1cccc3c1CN(C3)C(=O)O2)C(=O)NS(=O)(=O)C1CC1	≤ 1	≤ 0.001	–
